Measured values: publication PMC8800111 (The Journal of Biological Chemistry, 2021)

Key:
Assay type in all cases: cell-based
[1] = biological target: proteins of U3A human fibrosarcoma cells (4462 proteins detected) (Homo sapiens, UniProt P17252); conditions: protein PRKCA; U3A cells
[2] = biological target: proteins of U3A human fibrosarcoma cells (4462 proteins detected) (Homo sapiens, UniProt Q92572); conditions: protein AP3S1; U3A cells
[3] = biological target: proteins of U3A human fibrosarcoma cells (4462 proteins detected) (Homo sapiens, UniProt Q9NXW2); conditions: protein DNAJB12; soluble abundance after heat, U3A cells
[4] = biological target: proteins of U3A human fibrosarcoma cells (4462 proteins detected) (Homo sapiens, UniProt Q9UKX7); conditions: protein NUP50; soluble abundance after heat, U3A cells
[5] = biological target: proteins of U3A human fibrosarcoma cells (4462 proteins detected) (Homo sapiens, UniProt Q9H8H0); conditions: protein NOL11; soluble abundance after heat, U3A cells
[6] = biological target: proteins of U3A human fibrosarcoma cells (4462 proteins detected) (Homo sapiens, UniProt Q13641); conditions: protein TPBG; soluble abundance after heat, U3A cells
[7] = biological target: proteins of U3A human fibrosarcoma cells (4462 proteins detected) (Homo sapiens, UniProt P27816); conditions: protein MAP4, U3A cells
[8] = biological target: proteins of U3A human fibrosarcoma cells (4462 proteins detected) (Homo sapiens, UniProt Q49AR2); conditions: protein C5orf22, U3A cells
[9] = biological target: proteins of U3A human fibrosarcoma cells (4462 proteins detected) (Homo sapiens, UniProt Q7L5N1); conditions: protein COPS6; U3A cells
[10] = biological target: proteins of U3A human fibrosarcoma cells (4462 proteins detected) (Homo sapiens, UniProt P49368); conditions: protein CCT3; U3A cells
[11] = biological target: proteins of U3A human fibrosarcoma cells (4462 proteins detected) (Homo sapiens, UniProt P49458); conditions: protein SRP9, U3A cells
[12] = biological target: proteins of U3A human fibrosarcoma cells (4462 proteins detected) (Homo sapiens, UniProt Q9Y6H1); conditions: protein CHCHD2; CHCHD2P9; U3A, 10 μM, 2 h
[13] = biological target: proteins of U3A human fibrosarcoma cells (4462 proteins detected) (Homo sapiens, UniProt Q9NVT9); conditions: protein ARMC1; U3A cells
[14] = biological target: proteins of U3A human fibrosarcoma cells (4462 proteins detected) (Homo sapiens, UniProt O00244); conditions: protein ATOX1, U3A cells
[15] = biological target: proteins of U3A human fibrosarcoma cells (4462 proteins detected) (Homo sapiens, UniProt Q6KC79); conditions: protein NIPBL; U3A cells
[16] = biological target: proteins of U3A human fibrosarcoma cells (4462 proteins detected) (Homo sapiens, UniProt Q96T37); conditions: protein RBM15; U3A cells
[17] = biological target: proteins of U3A human fibrosarcoma cells (4462 proteins detected) (Homo sapiens, UniProt Q9NP77); conditions: protein SSU72, U3A cells
[18] = biological target: proteins of U3A human fibrosarcoma cells (4462 proteins detected) (Homo sapiens, UniProt P62847); conditions: protein RPS24, U3A cells
[19] = biological target: proteins of U3A human fibrosarcoma cells (4462 proteins detected) (Homo sapiens, UniProt Q9NVA2); conditions: protein SEPT11, U3A cells
[20] = biological target: proteins of U3A human fibrosarcoma cells (4462 proteins detected) (Homo sapiens, UniProt Q96FZ2); conditions: protein HMCES, U3A cells
[21] = biological target: proteins of U3A human fibrosarcoma cells (4462 proteins detected) (Homo sapiens, UniProt Q9NRL2); conditions: protein BAZ1A; U3A cells
[22] = biological target: proteins of U3A human fibrosarcoma cells (4462 proteins detected) (Homo sapiens, UniProt Q5T2R2); conditions: protein PDSS1; U3A cells
[23] = biological target: proteins of U3A human fibrosarcoma cells (4462 proteins detected) (Homo sapiens, UniProt Q4KWH8); conditions: protein PLCH1; U3A, 10 μM, 2 h
[24] = biological target: proteins of U3A human fibrosarcoma cells (4462 proteins detected) (Homo sapiens, UniProt P15153); conditions: protein RAC2; U3A, 10 μM, 2 h
[25] = biological target: proteins of U3A human fibrosarcoma cells (4462 proteins detected) (Homo sapiens, UniProt Q9NRN7); conditions: protein AASDHPPT; U3A cells
[26] = biological target: proteins of U3A human fibrosarcoma cells (4462 proteins detected) (Homo sapiens, UniProt Q9H3N1); conditions: protein TMX1; U3A cells
[27] = biological target: proteins of U3A human fibrosarcoma cells (4462 proteins detected) (Homo sapiens, UniProt P49841); conditions: protein GSK3B; soluble abundance after heat, U3A cells
[28] = biological target: proteins of U3A human fibrosarcoma cells (4462 proteins detected) (Homo sapiens, UniProt Q9UBQ5); conditions: protein EIF3K; U3A cells
[29] = biological target: proteins of U3A human fibrosarcoma cells (4462 proteins detected) (Homo sapiens, UniProt Q8NB16); conditions: protein MLKL; U3A, 10 μM, 2 h
[30] = biological target: proteins of U3A human fibrosarcoma cells (4462 proteins detected) (Homo sapiens, UniProt P26447); conditions: protein S100A4; U3A, 10 μM, 2 h

Sequence of proteins of U3A human fibrosarcoma cells (4462 proteins detected) (Homo sapiens, UniProt P49368) (P49368 whole entry): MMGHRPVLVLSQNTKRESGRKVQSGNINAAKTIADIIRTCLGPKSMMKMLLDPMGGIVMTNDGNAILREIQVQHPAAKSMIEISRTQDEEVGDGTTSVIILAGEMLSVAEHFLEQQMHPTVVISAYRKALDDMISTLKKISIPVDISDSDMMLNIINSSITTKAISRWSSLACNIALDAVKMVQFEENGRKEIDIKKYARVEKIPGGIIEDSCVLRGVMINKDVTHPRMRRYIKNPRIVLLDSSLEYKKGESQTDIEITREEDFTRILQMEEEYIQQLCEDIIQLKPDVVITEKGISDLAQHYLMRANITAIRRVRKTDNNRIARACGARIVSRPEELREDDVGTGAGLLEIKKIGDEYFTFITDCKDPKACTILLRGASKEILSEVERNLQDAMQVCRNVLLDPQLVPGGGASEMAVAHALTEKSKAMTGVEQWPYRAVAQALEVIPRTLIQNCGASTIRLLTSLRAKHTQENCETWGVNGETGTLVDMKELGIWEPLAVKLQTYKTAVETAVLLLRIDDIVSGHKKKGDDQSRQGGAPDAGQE
Sequence of proteins of U3A human fibrosarcoma cells (4462 proteins detected) (Homo sapiens, UniProt Q96T37) (Q96T37 whole entry): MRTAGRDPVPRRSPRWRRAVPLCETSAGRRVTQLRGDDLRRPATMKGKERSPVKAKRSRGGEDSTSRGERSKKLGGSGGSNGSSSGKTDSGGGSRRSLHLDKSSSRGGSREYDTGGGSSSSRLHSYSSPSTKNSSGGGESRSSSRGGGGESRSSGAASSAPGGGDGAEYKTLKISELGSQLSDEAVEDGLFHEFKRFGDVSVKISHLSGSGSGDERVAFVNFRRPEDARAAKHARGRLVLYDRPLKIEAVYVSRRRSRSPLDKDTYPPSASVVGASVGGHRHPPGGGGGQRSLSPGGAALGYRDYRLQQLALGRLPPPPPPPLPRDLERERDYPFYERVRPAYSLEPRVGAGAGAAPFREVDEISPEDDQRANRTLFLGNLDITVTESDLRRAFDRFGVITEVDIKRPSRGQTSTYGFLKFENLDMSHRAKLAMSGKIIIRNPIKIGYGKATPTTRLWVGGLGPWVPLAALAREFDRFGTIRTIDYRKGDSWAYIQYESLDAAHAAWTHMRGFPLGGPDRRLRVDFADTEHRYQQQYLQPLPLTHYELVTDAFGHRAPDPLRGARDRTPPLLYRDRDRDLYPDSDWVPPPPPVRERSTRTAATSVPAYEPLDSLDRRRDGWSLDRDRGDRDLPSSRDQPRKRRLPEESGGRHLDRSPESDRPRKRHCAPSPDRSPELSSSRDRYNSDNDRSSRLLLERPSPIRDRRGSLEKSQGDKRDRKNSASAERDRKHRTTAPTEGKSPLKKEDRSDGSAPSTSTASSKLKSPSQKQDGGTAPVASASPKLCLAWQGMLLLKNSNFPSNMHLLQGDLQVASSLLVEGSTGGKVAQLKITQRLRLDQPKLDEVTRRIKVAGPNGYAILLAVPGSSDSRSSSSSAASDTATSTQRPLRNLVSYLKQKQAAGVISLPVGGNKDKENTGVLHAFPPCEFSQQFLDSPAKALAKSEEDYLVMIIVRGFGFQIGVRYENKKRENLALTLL
Sequence of proteins of U3A human fibrosarcoma cells (4462 proteins detected) (Homo sapiens, UniProt Q4KWH8) (Q4KWH8 whole entry): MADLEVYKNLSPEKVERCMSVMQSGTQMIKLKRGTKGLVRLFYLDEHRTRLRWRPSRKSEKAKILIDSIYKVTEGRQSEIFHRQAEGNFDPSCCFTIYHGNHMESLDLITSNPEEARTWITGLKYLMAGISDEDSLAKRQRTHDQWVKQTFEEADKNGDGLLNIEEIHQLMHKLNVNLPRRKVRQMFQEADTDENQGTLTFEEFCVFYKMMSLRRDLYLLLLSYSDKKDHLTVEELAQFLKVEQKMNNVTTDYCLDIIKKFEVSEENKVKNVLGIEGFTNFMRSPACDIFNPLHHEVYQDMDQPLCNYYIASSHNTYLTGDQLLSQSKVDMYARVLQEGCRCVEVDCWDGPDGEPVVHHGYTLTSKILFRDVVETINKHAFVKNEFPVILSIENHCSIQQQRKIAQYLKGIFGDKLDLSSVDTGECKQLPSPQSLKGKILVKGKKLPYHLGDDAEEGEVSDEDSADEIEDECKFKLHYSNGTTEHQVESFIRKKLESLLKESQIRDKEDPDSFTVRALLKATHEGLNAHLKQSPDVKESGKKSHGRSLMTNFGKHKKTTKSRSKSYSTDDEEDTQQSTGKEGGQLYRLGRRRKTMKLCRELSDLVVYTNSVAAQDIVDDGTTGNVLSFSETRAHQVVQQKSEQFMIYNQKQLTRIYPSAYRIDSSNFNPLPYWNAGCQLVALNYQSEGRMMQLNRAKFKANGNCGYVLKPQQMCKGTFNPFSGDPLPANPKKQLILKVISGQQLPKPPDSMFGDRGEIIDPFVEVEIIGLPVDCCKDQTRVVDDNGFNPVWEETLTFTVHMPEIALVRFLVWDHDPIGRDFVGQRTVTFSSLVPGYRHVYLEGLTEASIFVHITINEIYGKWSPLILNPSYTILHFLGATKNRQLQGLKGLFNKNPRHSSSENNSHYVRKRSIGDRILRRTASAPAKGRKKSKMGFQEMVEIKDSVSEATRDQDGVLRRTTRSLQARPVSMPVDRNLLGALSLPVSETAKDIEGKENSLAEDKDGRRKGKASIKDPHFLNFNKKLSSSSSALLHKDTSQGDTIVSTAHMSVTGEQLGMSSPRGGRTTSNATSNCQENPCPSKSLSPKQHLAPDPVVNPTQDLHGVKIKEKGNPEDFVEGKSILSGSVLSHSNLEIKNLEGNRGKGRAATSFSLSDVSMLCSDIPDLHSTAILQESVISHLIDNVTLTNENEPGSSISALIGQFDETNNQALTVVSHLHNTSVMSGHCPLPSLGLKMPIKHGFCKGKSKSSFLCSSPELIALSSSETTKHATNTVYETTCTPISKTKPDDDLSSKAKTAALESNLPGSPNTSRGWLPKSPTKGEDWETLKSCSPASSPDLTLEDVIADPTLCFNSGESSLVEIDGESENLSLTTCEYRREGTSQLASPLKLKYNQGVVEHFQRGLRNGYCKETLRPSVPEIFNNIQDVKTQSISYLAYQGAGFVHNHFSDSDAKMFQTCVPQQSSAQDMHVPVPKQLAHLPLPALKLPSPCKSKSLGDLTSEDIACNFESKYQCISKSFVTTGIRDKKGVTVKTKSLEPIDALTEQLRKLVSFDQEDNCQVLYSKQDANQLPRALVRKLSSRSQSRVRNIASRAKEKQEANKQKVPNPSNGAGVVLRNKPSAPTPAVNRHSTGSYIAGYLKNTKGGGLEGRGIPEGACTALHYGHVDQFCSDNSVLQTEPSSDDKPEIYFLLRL
Sequence of proteins of U3A human fibrosarcoma cells (4462 proteins detected) (Homo sapiens, UniProt Q8NB16) (Q8NB16 whole entry): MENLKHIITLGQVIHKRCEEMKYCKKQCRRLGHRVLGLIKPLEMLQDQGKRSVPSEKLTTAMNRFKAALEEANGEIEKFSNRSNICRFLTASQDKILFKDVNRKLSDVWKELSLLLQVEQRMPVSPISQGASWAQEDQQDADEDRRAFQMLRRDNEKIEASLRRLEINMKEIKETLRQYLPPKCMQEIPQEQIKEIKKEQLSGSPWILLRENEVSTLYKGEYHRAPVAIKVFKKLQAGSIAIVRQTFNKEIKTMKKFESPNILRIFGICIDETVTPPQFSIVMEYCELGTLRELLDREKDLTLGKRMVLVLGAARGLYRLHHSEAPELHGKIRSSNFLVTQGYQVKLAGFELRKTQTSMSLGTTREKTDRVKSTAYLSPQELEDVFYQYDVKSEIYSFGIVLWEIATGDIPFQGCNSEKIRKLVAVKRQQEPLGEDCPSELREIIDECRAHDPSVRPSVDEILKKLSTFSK
Sequence of proteins of U3A human fibrosarcoma cells (4462 proteins detected) (Homo sapiens, UniProt Q9NRN7) (Q9NRN7 whole entry): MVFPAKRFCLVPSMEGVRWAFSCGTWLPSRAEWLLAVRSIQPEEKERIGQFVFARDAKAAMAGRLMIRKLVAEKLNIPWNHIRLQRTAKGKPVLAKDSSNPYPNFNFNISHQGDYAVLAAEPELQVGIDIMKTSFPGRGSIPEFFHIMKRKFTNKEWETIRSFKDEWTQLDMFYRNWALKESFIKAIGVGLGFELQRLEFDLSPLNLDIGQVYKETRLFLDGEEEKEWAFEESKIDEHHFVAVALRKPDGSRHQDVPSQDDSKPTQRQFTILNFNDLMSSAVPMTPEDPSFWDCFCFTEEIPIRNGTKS
Sequence of proteins of U3A human fibrosarcoma cells (4462 proteins detected) (Homo sapiens, UniProt O00244) (O00244 whole entry): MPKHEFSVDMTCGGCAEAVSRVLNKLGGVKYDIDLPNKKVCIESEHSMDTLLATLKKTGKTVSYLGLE
Sequence of proteins of U3A human fibrosarcoma cells (4462 proteins detected) (Homo sapiens, UniProt Q9NVT9) (Q9NVT9 whole entry): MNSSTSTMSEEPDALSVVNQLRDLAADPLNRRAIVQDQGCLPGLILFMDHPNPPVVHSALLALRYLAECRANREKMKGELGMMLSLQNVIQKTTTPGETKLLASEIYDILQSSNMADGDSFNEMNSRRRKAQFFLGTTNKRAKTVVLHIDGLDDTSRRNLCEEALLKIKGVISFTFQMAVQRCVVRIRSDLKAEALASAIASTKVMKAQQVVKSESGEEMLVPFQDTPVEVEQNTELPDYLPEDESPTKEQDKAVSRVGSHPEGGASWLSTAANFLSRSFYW
Sequence of proteins of U3A human fibrosarcoma cells (4462 proteins detected) (Homo sapiens, UniProt Q49AR2) (Q49AR2 whole entry): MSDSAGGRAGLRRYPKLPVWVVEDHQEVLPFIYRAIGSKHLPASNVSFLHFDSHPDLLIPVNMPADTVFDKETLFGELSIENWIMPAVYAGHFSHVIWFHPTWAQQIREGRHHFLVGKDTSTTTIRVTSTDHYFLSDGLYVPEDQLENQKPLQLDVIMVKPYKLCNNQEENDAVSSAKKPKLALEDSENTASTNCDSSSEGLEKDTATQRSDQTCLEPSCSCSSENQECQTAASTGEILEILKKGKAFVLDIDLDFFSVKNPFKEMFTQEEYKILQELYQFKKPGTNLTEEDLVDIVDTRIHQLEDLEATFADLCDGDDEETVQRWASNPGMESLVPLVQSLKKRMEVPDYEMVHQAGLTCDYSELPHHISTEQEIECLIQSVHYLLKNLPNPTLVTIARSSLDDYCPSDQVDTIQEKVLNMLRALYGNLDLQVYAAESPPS
Sequence of proteins of U3A human fibrosarcoma cells (4462 proteins detected) (Homo sapiens, UniProt Q92572) (Q92572 whole entry): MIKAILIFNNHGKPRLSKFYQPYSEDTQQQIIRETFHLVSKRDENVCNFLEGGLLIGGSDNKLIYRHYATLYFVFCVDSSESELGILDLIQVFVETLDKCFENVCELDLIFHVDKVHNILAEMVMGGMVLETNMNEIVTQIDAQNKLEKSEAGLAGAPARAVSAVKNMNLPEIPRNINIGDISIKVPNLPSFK

SMILES: CCc1nc(N)nc(N)c1-c1ccc(Cl)cc1 [pyrimethamine]
- Log2 (PYR/DMSO) [1]: 0.16
- Log2 (PYR/DMSO) [2]: 0.18
- Log2 (PYR/DMSO) [3]: 0.15
- Log2 (PYR/DMSO) [4]: 0.15
- Log2 (PYR/DMSO) [5]: 0.14
- Log2 (PYR/DMSO) [6]: 0.14
- Log2 (PYR/DMSO) [7]: -0.05
- Log2 (PYR/DMSO) [8]: -0.04
- Log2 (PYR/DMSO) [9]: 0.16
- Log2 (PYR/DMSO) [10]: 0.17
- Log2 (PYR/DMSO) [11]: -0.05
- Log2 (PYR/DMSO), CHCHD2; CHCHD2P9 [12]: 0.36
- Log2 (PYR/DMSO) [13]: 0.16
- Log2 (PYR/DMSO) [14]: -0.04
- Log2 (PYR/DMSO) [15]: 0.23
- Log2 (PYR/DMSO) [16]: 0.17
- Log2 (PYR/DMSO) [17]: -0.04
- Log2 (PYR/DMSO) [18]: -0.04
- Log2 (PYR/DMSO) [19]: -0.04
- Log2 (PYR/DMSO) [20]: -0.04
- Log2 (PYR/DMSO) [21]: 0.19
- Log2 (PYR/DMSO) [22]: 0.20
- Log2 (PYR/DMSO), PLCH1 [23]: 0.32
- Log2 (PYR/DMSO), RAC2 [24]: -0.15
- Log2 (PYR/DMSO) [25]: 0.17
- Log2 (PYR/DMSO) [26]: 0.20
- Log2 (PYR/DMSO) [27]: 0.15
- Log2 (PYR/DMSO) [28]: 0.20
- Log2 (PYR/DMSO), MLKL [29]: 0.27
- Log2 (PYR/DMSO), S100A4 [30]: -0.16
